Data on 1 compound can be found in patent publication US20060204449A1, “Nasal pharmaceutical composition of piribedil” (priority 2003, published 2006).

Each structure is given as a SMILES string.

The conditions of series [1]: humans; cited from earlier work.
The nature of series [2]: Kinetics, tolerance and bioavailability study in healthy volunteers (nasal administration). It is filed as in vivo, humans. The settings on record: human, plasma, inhaled or intranasal, formulation of Example 1, deduced from the kinetics results, read-out: bioavailability of piribedil administered by the nasal route. The procedure:
Kinetics, Tolerance and Bioavailability Study in Healthy Volunteers
A study was carried out in 24 healthy volunteers in order to assess the local tolerance of the pharmaceutical composition according to the invention and also the kinetics of the formulation.
This study was carried out using the formulation described in Example 1, administered with the aid of a metering pump which delivers 100 μl of solution on each spray. The doses of piribedil tested are as follows: 0.1 mg, 0.25 mg, 0.5 mg, 1 mg and 2 mg, administered using two sprays each of 100 μl.

As for `c1cnc(N2CCN(Cc3ccc4c(c3)OCO4)CC2)nc1` [piribedil, Piribedil], the “bioavailability by the oral route in relation to the parenteral route” value in series [1] is given as “low”. The bioavailability in series [2] fell in the range of 50 to 70%.
